Results taken from patent US7375132B2, “Compounds and methods for inhibiting cellular responses to hypoxia” (University of Mississippi, priority 2004, dated 2008).

Tests used:
HIF-1 [1] = assay: Cell-based HIF-1 luciferase reporter assay (pTK-HRE3-luc), HIF-1 activation by hypoxia; conditions: Homo sapiens; T47D cells; 1% O2/5% CO2/94% N2, 16 hr; read-out: IC50, inhibition of hypoxia-induced HIF-1 activity
From the text: To identify functional antagonists of HIF-1, the present inventors have established a cell-based reporter assay for inhibitors of HIF-1 in hypoxia responsive human breast carcinoma T47D cells. Breast cancer was chosen as the target for this drug discovery effort, due to the high incidence of this disease and the urgent need to identify chemotherapeutic agents that target tumor hypoxia, the comprehensive knowledge base of breast cancer etiology, and the availability of well-studied human breast carcinoma cell lines as in vitro models. In addition, HIF-1α overexpression is associated with advanced stages of breast cancer and poor prognosis. The activity of HIF-1 is monitored using a luciferase reporter under the control of HRE from the erythropoietin gene (pTK-HRE3-luc). Natural product-rich extracts (dissolved in DMSO) are evaluated for activities that inhibit HIF-1 activation by hypoxia (about: 1% O2/5% CO2/94% N2).
For these studies, exponentially grown T47D cells are transiently transfected with the pTK-HRE3-luc and pGL3-control (Promega) reporters and plated into 96-well plates. […]
About 24 hours after plating, a compound of Formula (I) is added to the transfected T47D cells. […] At the end of incubation, the cells are harvested and both luciferase activities determined using a Luciferase Assay System (Promega). […]

HIF-1 [2] = assay: Cell-based HIF-1 luciferase reporter assay, HIF-1 activation by iron chelator 1,10-phenanthroline (chemical hypoxia); design: species or system human; conditions: T47D cells; 1,10-phenanthroline at 10 μM; compound about 3 μM (FIG. 3)
Experimental: For these studies, exponentially grown T47D cells are transiently transfected with the pTK-HRE3-luc and pGL3-control (Promega) reporters and plated into 96-well plates. The pGL3-control reporter contains a modified reporter (cloned from Photinus pyralis) under the control of a SV40 early promoter and provides low-level, constitutive expression in mammalian cells as internal control.
About 24 hours after plating, a compound of Formula (I) is added to the transfected T47D cells. Following incubation at about 37° C. for about 30 minutes, the cells are exposed to hypoxic conditions (1% O2/5% CO2/94% N2) or chemical hypoxia (iron chelator 1,10-phenanthroline at 10 μM) for 16 hr. At the end of incubation, the cells are harvested and both luciferase activities determined using a Luciferase Assay System (Promega). Luciferase activity from the pTK-HRE3-luc reporter was compared to luciferase activity from the pGL3-control reporter.

T47D cells [3] = assay: Cell viability by Neutral Red assay under hypoxic conditions; type: cell-based, human; conditions: similar hypoxic conditions
From the text: The data presented in FIGS. 2 and 3 are averages from one representative experiment performed in quadruplicate and the bars represent standard errors. Accordingly, a compound of Formula (I) is shown to have a selective effect on physiological hypoxia-induced HIF-1 activation, relative to “chemical hypoxia”-induced HIF-1. To rule out false positives associated with cytotoxicity, the effects of Formula (I) on cell viability are examined.

secreted VEGF protein [4] = assay: Secreted VEGF protein ELISA after hypoxic treatment; type: cell-based, human; conditions: concentrations of 1 μM and above; hypoxic treatment of T47D cells
Experimental: (§1) Since secreted VEGF protein is the bioactive form, compounds that can reduce the level of secreted VEGF protein represent potential tumor angiogenesis inhibitors. Thus, compounds that can inhibit both hypoxic activation of HIF-1 and hypoxic induction of secreted VEGF protein represent “true” leads that target tumor hypoxia. The effects of compounds of the present invention on hypoxic induction of secreted VEGF protein are examined in T47D cells. Exponentially grown T47D cells were plated at the density of about 30,000 cells/well into 96-well plates. Compound treatment and hypoxic exposure were the same as described. Following incubation, secreted VEGF protein concentrations in the conditioned media are determined by ELISA (R & D Systems) and the data normalized by the number of viable cells. […] Therefore, in addition to its effect on HIF-1, compounds of the present invention have a potential therapeutic application as an agent to inhibit tumor angiogenesis.

secreted VEGF protein [5] = assay: Secreted VEGF protein ELISA after 1,10-phenanthroline (chemical hypoxia); type: cell-based, human; conditions: T47D cells pretreated with 1,10-phenanthroline (chemical hypoxia)
Experimental: as §1

HIF-1α protein = assay: Western blot of nuclear HIF-1α protein induced by hypoxia; type: cell-based, human; conditions: T47D cells; hypoxia about 4 hours; nuclear extract Western blot
Experimental: Since the availability of the oxygen-regulated HIF-1α protein determines the biological activity of HIF-1 and hypoxia induces HIF-1α protein, the effect of compounds of the present invention on the induction of HIF-1α protein are examined in T47D cells. Briefly, exponentially grown T47D cells are exposed to a compound of Formula (I) for about 30 minutes. The incubation then continues for about 4 hours under hypoxic conditions. Nuclear extracts are prepared from control and treated cells. The HIF-1αand HIF-1β proteins in the nuclear extract samples are detected by Western blot, using HIF-1αand HIF-1β specific antibodies (Novus Biologicals). […] Significant inhibition of HIF-1α protein is observed at about 100 nM and complete inhibition is observed at about 1 μM. It is reasonable to conclude that the selectivity of the compounds of the present invention towards hypoxia-activated HIF-1 is caused by selective blockade of the hypoxic induction of HIF-1α protein.

T47D cells [6] = assay: T47D cell survival under hypoxic conditions (FIG. 8); type: cell-based, human
[7] = tested on: mitochondrial electron transport pathway; assay: Mitochondrial oxygen consumption (FIG. 9); type: biochemical; conditions: in the presence of glutamate/malate, ADP; increasing amounts of compound
Experimental: FIG. 9 is a graph showing that a compound of formula 1 inhibits the mitochondrial electron transport pathway. Mitochondrial oxygen consumption was measured, in this example, in the presence of glutamate/malate, ADP and increasing amounts of a compound of formula 1.

Q: Which IC50 (HIF-1 [1]) does the source give for `CC1=CC(O)C(C(C)CCC2C(C)C3(C)CCC2(C)O3)CC1` (stereo not drawn) [Formula (I), LAURENDITERPENOL] here?
A: ~400 nM

Q: And the “effect on iron chelator-induced HIF-1” value (HIF-1 [2])?
A: no statistically significant effect

Q: What about the “effect on T47D cell viability” value (T47D cells [3]) of the same compound?
A: marginal decrease

Q: What about the “decrease in level of secreted VEGF protein” value (secreted VEGF protein [4]) of the same compound?
A: about 60%

Q: What about the “effect on secreted VEGF protein levels” value (secreted VEGF protein [5]) of the same compound?
A: do not affect

Q: What about the “concentration at which complete inhibition of HIF-1α protein is observed” value (HIF-1α protein) of the same compound?
A: about 1 μM

Q: What about the “concentration at which significant inhibition of HIF-1α protein is observed” value (HIF-1α protein) of the same compound?
A: about 100 nM

Q: What about the “effect on T47D cell survival” value (T47D cells [6]) of the same compound?
A: significantly reduced

Q: And the “effect on mitochondrial electron transport pathway (oxygen consumption)” value [7]?
A: inhibits
